Results published in PMC4295349, “Synthetic Antimicrobial Peptides Exhibit Two Different Binding Mechanisms to the Lipopolysaccharides Isolated from Pseudomonas aeruginosa and Klebsiella pneumoniae” (International Journal of Medicinal Chemistry, 2014).
Where two headings read alike, the source gives them in different places. Each block holds one molecule with its values, some of them ahead of it. Where a SMILES comes first, the peptide text is derived from it. [ ]: non-standard residue; d: D form. ξ: configuration not given here. Oic = O=C(O)[C@@H]1C[C@@H]2CCCC[C@@H]2N1; Oic(3aξ,7aξ) = O=C(O)[C@@H]1CC2CCCCC2N1; Tic = O=C(O)[C@@H]1Cc2ccccc2CN1; βAla = NCCC(=O)O

How the values were obtained:
[1] = format: physicochemical
Protocol: Peptide solutions were prepared by dissolving approximately 2 mg of AMPs 70, 74, 75, 79, or 80 in 1.0 mL of phosphate buffer. […] For the LPS liposome studies 350 μL of stock LPS solution was mixed with 50 μL of stock peptide solution. CD spectroscopy is a sensitive technique, so it is commonly used to monitor conformational changes in peptides and proteins. […] All CD spectra were obtained by acquiring 8 scans using a 0.1 mm cylindrical quartz cell with a spectral range of 260 to 195 nm (at wavelengths below 195 nm the HTV exceeded 400, and therefore data collection was terminated at 195 nm) and a scanning rate of 20 nm/min. Acquisition parameters were bandwidth 1 nm, data pitch 0.2 nm, response time 2.0 s, and 5 mdeg sensitivity. Spectra were collected at room temperature (298 K). Contributions from LPS were eliminated by subtracting from the corresponding AMP-LPS solutions. All analyses of CD spectra were conducted after smoothing with a means-movement function.

P. aeruginosa PAO1 [2] = format: cell-based, Pseudomonas aeruginosa
Excerpt: Table 3 In vitro minimum inhibitory concentration (MIC) and minimum bactericide concentration (MBC) activity against K. pneumonia and P. aeruginosa. | column: P. aeruginosa PAO1 / MBC (µg/mL)/(μM)

K. pneumoniae BAMC 07-18 [3] = details: for in vitro inhibitory activity: against K. pneumoniae
K. pneumoniae BAMC 07-18 [4] = format: cell-based, Klebsiella pneumoniae
Excerpt: Table 3 In vitro minimum inhibitory concentration (MIC) and minimum bactericide concentration (MBC) activity against K. pneumonia and P. aeruginosa. | column: K. pneumoniae BAMC 07-18 / MBC (μg/mL)/(μM)

P. aeruginosa PAO1 [5] = details: for in vitro inhibitory activity: against P. aeruginosa
[6] = test system: LPS isolated from P. aeruginosa; assay: 1H NMR of LPS on addition of AMP; format: binding, Pseudomonas aeruginosa; details: 1.0 mg/mL LPS + 0.1 mg AMP in 600 μL 150 mM perdeuterated sodium acetate buffer pH 5.64 in D2O, 298 K
Protocol: (§1) All ^1H experiments were conducted at 298 K on a Bruker Avance III 400 MHz NMR spectrometer equipped with a 5 mm direct observe Z-gradient broad-band probe. The spectral width was 4,000 Hz, 256 FIDs were collected per experiment. Data were processed using exponential multiplication with a line-broadening function of 5 Hz. Samples contained 1.0 mg/mL of the LPS in the presence of 0.1 mg of the AMP in 600 μL of a 150 mM perdeuterated sodium acetate buffer at a pH of 5.64 in D2O.

[7] = test system: LPS isolated from K. pneumoniae; assay: 1H NMR of LPS on addition of AMP; format: binding, Klebsiella pneumoniae; details: 1.0 mg/mL LPS + 0.1 mg AMP in 600 μL 150 mM perdeuterated sodium acetate buffer pH 5.64 in D2O, 298 K
Protocol: as §1

[8] = P. aeruginosa PAO1, light face value
[9] = K. pneumoniae BAMC 07-18, light face value

solubility in phosphate buffer at approximately 2 mg in 1.0 mL [1]: solubility issues
MIC (K. pneumoniae BAMC 07-18 [3]; BAMC 07-18): >100 µg/mL
MIC (P. aeruginosa PAO1 [5]; PAO1): >100 µg/mL
Molecule: CC(C)C[C@H](NC(=O)[C@@H](N)CCCCN)C(=O)N1Cc2ccccc2C[C@H]1C(=O)N1[C@H](C(=O)N[C@@H](CCCCN)C(=O)N2Cc3ccccc3C[C@H]2C(=O)N2[C@H](C(=O)N[C@@H](Cc3ccccc3)C(=O)N3Cc4ccccc4C[C@H]3C(=O)N3[C@H](C(=O)N[C@@H](CCCCN)C(=O)N4Cc5ccccc5C[C@H]4C(=O)N4[C@H](C(=O)N[C@@H](Cc5ccccc5)C(=O)N5Cc6ccccc6C[C@H]5C(=O)N5[C@H](C(=O)N[C@@H](CCCCN)C(=O)N6Cc7ccccc7C[C@H]6C(=O)N6[C@H](C(=O)N[C@@H](CCCCN)C(=O)N[C@@H](CCCNC(=N)N)C(N)=O)C[C@@H]7CCCC[C@@H]76)C[C@@H]6CCCC[C@@H]65)C[C@@H]5CCCC[C@@H]54)C[C@@H]4CCCC[C@@H]43)C[C@@H]3CCCC[C@@H]32)C[C@@H]2CCCC[C@@H]21 [AMP 22] (H-KL[Tic][Oic]K[Tic][Oic]F[Tic][Oic]K[Tic][Oic]F[Tic][Oic]K[Tic][Oic]KR-NH2)
MBC (P. aeruginosa PAO1 [2]; PAO1): >100 µg/mL
in vitro inhibitory activity (K. pneumoniae BAMC 07-18 [3]): ≥ 100 µg/mL
MBC (K. pneumoniae BAMC 07-18 [4]; BAMC 07-18): >100 µg/mL
in vitro inhibitory activity (P. aeruginosa PAO1 [5]): ≥ 100 µg/mL

Molecule: CC(=O)N[C@@H](CCCCN)C(=O)N[C@@H](CC(C)C)C(=O)N1Cc2ccccc2C[C@H]1C(=O)N1[C@H](C(=O)N[C@@H](CCCCN)C(=O)N2Cc3ccccc3C[C@H]2C(=O)N2[C@H](C(=O)N[C@@H](Cc3ccccc3)C(=O)N3Cc4ccccc4C[C@H]3C(=O)N3[C@H](C(=O)N[C@@H](CCCCN)C(=O)N4Cc5ccccc5C[C@H]4C(=O)N4[C@H](C(=O)N[C@@H](Cc5ccccc5)C(=O)N5Cc6ccccc6C[C@H]5C(=O)N5[C@H](C(=O)N[C@@H](CCCCN)C(=O)N6Cc7ccccc7C[C@H]6C(=O)N6[C@H](C(=O)N[C@@H](CCCCN)C(=O)N[C@@H](CCCCN)C(=O)N[C@@H](CCCCN)C(=O)N[C@@H](CCCCN)C(N)=O)C[C@@H]7CCCC[C@@H]76)C[C@@H]6CCCC[C@@H]65)C[C@@H]5CCCC[C@@H]54)C[C@@H]4CCCC[C@@H]43)C[C@@H]3CCCC[C@@H]32)C[C@@H]2CCCC[C@@H]21 [AMP 70] (Ac-KL[Tic][Oic]K[Tic][Oic]F[Tic][Oic]K[Tic][Oic]F[Tic][Oic]K[Tic][Oic]KKKK-NH2)
MBC (P. aeruginosa PAO1 [2]; PAO1): >100 µg/mL
change of LPS 1H NMR resonances between 1.5 and 0.5 ppm (lipid A side chains) [6]: significant reduction in the peak heights
change of LPS 1H NMR resonances in the region of 1.8 to 0.7 ppm (lipid A) [7]: reduction in the signal intensity
MIC (K. pneumoniae BAMC 07-18 [3]; BAMC 07-18): >100 µg/mL
in vitro inhibitory activity (K. pneumoniae BAMC 07-18 [3]): ≥ 100 µg/mL
MBC (K. pneumoniae BAMC 07-18 [4]; BAMC 07-18): >100 µg/mL
MIC (P. aeruginosa PAO1 [5]; PAO1): >100 µg/mL
in vitro inhibitory activity (P. aeruginosa PAO1 [5]): ≥ 100 µg/mL

Molecule: CC(C)C[C@H](NC(=O)[C@@H](N)CCCCN)C(=O)N1Cc2ccccc2C[C@H]1C(=O)N1[C@H](C(=O)N[C@@H](CCCCN)C(=O)N2Cc3ccccc3C[C@H]2C(=O)N2[C@H](C(=O)NCC(=O)N[C@@H](Cc3ccccc3)C(=O)N3Cc4ccccc4C[C@H]3C(=O)N3[C@H](C(=O)N[C@@H](CCCCN)C(=O)N4Cc5ccccc5C[C@H]4C(=O)N4[C@H](C(=O)NCC(=O)N[C@@H](Cc5ccccc5)C(=O)N5Cc6ccccc6C[C@H]5C(=O)N5[C@H](C(=O)N[C@@H](CCCCN)C(=O)N6Cc7ccccc7C[C@H]6C(=O)N6[C@H](C(=O)N[C@@H](CCCCN)C(=O)N[C@@H](CCCCN)C(=O)N[C@@H](CCCCN)C(=O)N[C@@H](CCCCN)C(N)=O)C[C@@H]7CCCC[C@@H]76)C[C@@H]6CCCC[C@@H]65)C[C@@H]5CCCC[C@@H]54)C[C@@H]4CCCC[C@@H]43)C[C@@H]3CCCC[C@@H]32)C[C@@H]2CCCC[C@@H]21 [AMP 75] (H-KL[Tic][Oic]K[Tic][Oic]GF[Tic][Oic]K[Tic][Oic]GF[Tic][Oic]K[Tic][Oic]KKKK-NH2)
MBC (P. aeruginosa PAO1 [2]; [8]): 50 µg/mL
MBC (P. aeruginosa PAO1 [2]; PAO1): 14.6 µM
change of LPS 1H NMR resonances between 1.5 and 0.5 ppm (lipid A side chains) [6]: significant reduction in the peak heights
change of LPS 1H NMR resonances in the region of 1.8 to 0.7 ppm (lipid A) [7]: reduction in the signal intensity
in vitro inhibitory activity (K. pneumoniae BAMC 07-18 [3]): ≥ 100 µg/mL
MIC (P. aeruginosa PAO1 [5]; [8]): 50 µg/mL
MIC (P. aeruginosa PAO1 [5]; PAO1): 14.6 µM
in vitro inhibitory activity (P. aeruginosa PAO1 [5]): 50 µg/mL

Molecule: CC(C)C[C@H](NC(=O)[C@@H](N)CCCCN)C(=O)N1Cc2ccccc2C[C@H]1C(=O)N1C2CCCCC2C[C@H]1C(=O)N[C@@H](CCCCN)C(=O)NCC(=O)N1Cc2ccccc2C[C@H]1C(=O)N1C2CCCCC2C[C@H]1C(=O)N[C@@H](Cc1ccccc1)C(=O)NCC(=O)N1Cc2ccccc2C[C@H]1C(=O)N1C2CCCCC2C[C@H]1C(=O)N[C@@H](CCCCN)C(=O)NCC(=O)N1Cc2ccccc2C[C@H]1C(=O)N1C2CCCCC2C[C@H]1C(=O)N[C@@H](Cc1ccccc1)C(=O)NCC(=O)N1Cc2ccccc2C[C@H]1C(=O)N1C2CCCCC2C[C@H]1C(=O)N[C@@H](CCCCN)C(=O)NCC(=O)N1Cc2ccccc2C[C@H]1C(=O)N1C2CCCCC2C[C@H]1C(=O)N[C@@H](CCCCN)C(=O)N[C@@H](CCCCN)C(=O)N[C@@H](CCCCN)C(=O)N[C@@H](CCCCN)C(N)=O (stereo partly drawn) [AMP 79] (H-KL[Tic][Oic(3aξ,7aξ)]KG[Tic][Oic(3aξ,7aξ)]FG[Tic][Oic(3aξ,7aξ)]KG[Tic][Oic(3aξ,7aξ)]FG[Tic][Oic(3aξ,7aξ)]KG[Tic][Oic(3aξ,7aξ)]KKKK-NH2)
MBC (P. aeruginosa PAO1 [2]; [8]): 50 µg/mL
MBC (P. aeruginosa PAO1 [2]; PAO1): 13.9 µM
change of LPS 1H NMR resonances between 1.5 and 0.5 ppm (lipid A side chains) [6]: significant reduction in the peak heights
change of LPS 1H NMR resonances in the region of 1.8 to 0.7 ppm (lipid A) [7]: reduction in the signal intensity
MIC (K. pneumoniae BAMC 07-18 [3]; BAMC 07-18): 13.9 µM
MIC (K. pneumoniae BAMC 07-18 [3]; [9]): 50 µg/mL
in vitro inhibitory activity (K. pneumoniae BAMC 07-18 [3]): 50 µg/mL
MBC (K. pneumoniae BAMC 07-18 [4]; BAMC 07-18): 13.9 µM
MBC (K. pneumoniae BAMC 07-18 [4]; [9]): 50 µg/mL
MIC (P. aeruginosa PAO1 [5]; [8]): 50 µg/mL
MIC (P. aeruginosa PAO1 [5]; PAO1): 13.9 µM
in vitro inhibitory activity (P. aeruginosa PAO1 [5]): 50 µg/mL

Molecule: CC(C)C[C@H](NC(=O)[C@@H](N)CCCCN)C(=O)N1Cc2ccccc2C[C@H]1C(=O)N1C2CCCCC2C[C@H]1C(=O)NCC(=O)N[C@@H](CCCCN)C(=O)N1Cc2ccccc2C[C@H]1C(=O)N1C2CCCCC2C[C@H]1C(=O)NCCC(=O)N[C@@H](Cc1ccccc1)C(=O)N1Cc2ccccc2C[C@H]1C(=O)N1C2CCCCC2C[C@H]1C(=O)NCC(=O)N[C@@H](CCCCN)C(=O)N1Cc2ccccc2C[C@H]1C(=O)N1C2CCCCC2C[C@H]1C(=O)NCCC(=O)N[C@@H](Cc1ccccc1)C(=O)N1Cc2ccccc2C[C@H]1C(=O)N1C2CCCCC2C[C@H]1C(=O)NCC(=O)N[C@@H](CCCCN)C(=O)N1Cc2ccccc2C[C@H]1C(=O)N1C2CCCCC2C[C@H]1C(=O)N[C@@H](CCCCN)C(=O)N[C@@H](CCCCN)C(=O)N[C@@H](CCCCN)C(=O)N[C@@H](CCCCN)C(N)=O (stereo partly drawn) [AMP 80] (H-KL[Tic][Oic(3aξ,7aξ)]GK[Tic][Oic(3aξ,7aξ)][βAla]F[Tic][Oic(3aξ,7aξ)]GK[Tic][Oic(3aξ,7aξ)][βAla]F[Tic][Oic(3aξ,7aξ)]GK[Tic][Oic(3aξ,7aξ)]KKKK-NH2)
MBC (P. aeruginosa PAO1 [2]; [8]): 50 µg/mL
MBC (P. aeruginosa PAO1 [2]; PAO1): 13.8 µM
change of LPS 1H NMR resonances between 1.5 and 0.5 ppm (lipid A side chains) [6]: significant reduction in the peak heights
change of LPS 1H NMR resonances in the region of 1.8 to 0.7 ppm (lipid A) [7]: reduction in the signal intensity
MIC (K. pneumoniae BAMC 07-18 [3]; BAMC 07-18): 13.8 µM
MIC (K. pneumoniae BAMC 07-18 [3]; [9]): 50 µg/mL
in vitro inhibitory activity (K. pneumoniae BAMC 07-18 [3]): 50 µg/mL
MBC (K. pneumoniae BAMC 07-18 [4]; BAMC 07-18): 13.8 µM
MBC (K. pneumoniae BAMC 07-18 [4]; [9]): 50 µg/mL
MIC (P. aeruginosa PAO1 [5]; [8]): 25 µg/mL
MIC (P. aeruginosa PAO1 [5]; PAO1): 6.9 µM
in vitro inhibitory activity (P. aeruginosa PAO1 [5]): 50 µg/mL

Molecule: H2N-KL-Tic-Oic-GK-Tic-Oic-F-Tic-Oic-GK-Tic-Oic-F-Tic-Oic-GK-Tic-Oic-KKKK-CONH2 [AMP 74]
change of LPS 1H NMR resonances between 1.5 and 0.5 ppm (lipid A side chains) [6]: significant reduction in the peak heights
change of LPS 1H NMR resonances in the region of 1.8 to 0.7 ppm (lipid A) [7]: reduction in the signal intensity
in vitro inhibitory activity (K. pneumoniae BAMC 07-18 [3]): ≥ 100 µg/mL
in vitro inhibitory activity (P. aeruginosa PAO1 [5]): ≥ 100 µg/mL
